Source: ChEMBL document CHEMBL1122825, “Peptide sweeteners. 8. Synthesis and structure-taste relationship studies of L-aspartyl-D-alanyl tripeptides” (J Med Chem, 1985)
Where a SMILES comes first, the peptide text is derived from it. [ ]: non-standard residue; d: D form. Ac6c = NC1(C(=O)O)CCCCC1; Ac5c = NC1(C(=O)O)CCCC1; Ac4c = NC1(C(=O)O)CCC1; Deg = CCC(N)(CC)C(=O)O; Ac3c = NC1(C(=O)O)CC1; Aib = CC(C)(N)C(=O)O

Assay: Compound is evaluated for sweet potency; -=Bitter

| Sweetness potency | Structure (SMILES) |
| --- | --- |
| Bitter | COC(=O)C1(NC(=O)[C@H](C)NC(=O)[C@@H](N)CC(=O)O)CCCCCC1 |
| Bitter | COC(=O)C1(NC(=O)[C@H](C)NC(=O)[C@@H](N)CC(=O)O)CCCCCCC1 |

Assay: Compound is evaluated for sweet potency; +=Sweet

| Structure (SMILES) | Sweetness potency |
| --- | --- |
| COC(=O)C1(NC(=O)[C@H](C)NC(=O)[C@@H](N)CC(=O)O)CCC1 (H-Asp-Ala-[Ac4c]-OMe) | Sweet |
| COC(=O)C(C)(C)NC(=O)[C@H](C)NC(=O)[C@@H](N)CC(=O)O (H-Asp-Ala-[Aib]-OMe) | Sweet |
| CCC(CC)(NC(=O)[C@H](C)NC(=O)[C@@H](N)CC(=O)O)C(=O)OC (H-Asp-Ala-[Deg]-OMe) | Sweet |
| COC(=O)C1(NC(=O)[C@H](C)NC(=O)[C@@H](N)CC(=O)O)CC1 (H-Asp-Ala-[Ac3c]-OMe) | Sweet |

The remaining lines, values ahead:

| Sweetness potency | Structure (SMILES) |
| --- | --- |
| Sweet | COC(=O)C1(NC(=O)[C@H](C)NC(=O)[C@@H](N)CC(=O)O)CCCC1 (H-Asp-Ala-[Ac5c]-OMe) |
| Sweet | COC(=O)C1(NC(=O)[C@H](C)NC(=O)[C@@H](N)CC(=O)O)CCCCC1 (H-Asp-Ala-[Ac6c]-OMe) |
